Test results as given in patent publication US20240408027A1, “HIGH DRUG LOADING POLYMERS” (priority 2021, published 2024).
Values belong to the compound of their own block, whether it stands above or below them.

Assay: Drug loading of paclitaxel, etoposide, chloroquine into core library (Example 3)

core composition at loading maximum (polymer:drug 1:1): 90 % B
Compound: CC(=O)O[C@H]1C(=O)[C@@]2(C)[C@H]([C@H](OC(=O)c3ccccc3)[C@]3(O)C[C@H](OC(=O)[C@H](O)[C@@H](NC(=O)c4ccccc4)c4ccccc4)C(C)=C1C3(C)C)[C@]1(OC(C)=O)CO[C@@H]1C[C@@H]2O [Paclitaxel, paclitaxel]

Compound: CCN(CC)CCCC(C)Nc1ccnc2cc(Cl)ccc12 (stereo not drawn) [chloroquine]
loading trend with core composition (polymer:drug 1:1): increased loading with increasing H-bonding

LE+LC, fold higher in the absence of H-bonding groups in the core (100% B core): > 2 ×
Compound: COc1cc([C@@H]2c3cc4c(cc3[C@@H](O[C@@H]3O[C@@H]5CO[C@@H](C)O[C@H]5[C@H](O)[C@H]3O)[C@H]3COC(=O)[C@H]23)OCO4)cc(OC)c1O [etoposide]
